Source: the supplement of paper PMC11451515

Experiments:
Test in all cases: AUC of viability dose-response curve (% viability x log10 dose units); higher = less sensitive
Conditions in all cases: 48 h
NOMO1 = test system: NOMO1
Procedure, shortened: (§1)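 Leukemia cells adapted to each medium were seeded at 500 or 1000 cells/well in 1536-well plates and dosed with library compounds in DMSO at 11 threefold doses from 47 μM to 0.79 nM for 48 h at 37°C. CellTiter-Glo One luminescence was normalised per plate to DMSO and cell-free wells, then fitted with a four-parameter log-logistic model over log10 doses. Area under the curve was taken from this fit by the trapezoidal rule, with curves above full viability scaled and curves failing quality control removed.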

SEM cells = test system: SEM cells
Procedure, shortened: as §1

P12-Ichikawa = test system: P12-Ichikawa
Procedure, shortened: as §1

[1] = RPMI 5 mM glucose + 10% dialyzed FBS

SMILES | AUC of viability dose-response curve (NOMO1; HPLM + 10% dialyzed FBS) | AUC of viability dose-response curve (NOMO1; RPMI 5 mM glucose + 10% FBS) | AUC of viability dose-response curve (NOMO1; [1]) | AUC of viability dose-response curve (SEM cells; HPLM + 10% dialyzed FBS) | AUC of viability dose-response curve (SEM cells; RPMI 5 mM glucose + 10% FBS) | AUC of viability dose-response curve (SEM cells; [1]) | AUC of viability dose-response curve (P12-Ichikawa; HPLM + 10% dialyzed FBS) | AUC of viability dose-response curve (P12-Ichikawa; RPMI 5 mM glucose + 10% FBS) | AUC of viability dose-response curve (P12-Ichikawa; [1])
NCCCCCC(=O)O | 469 | 459 | 447 | 398 | 459 | 389 | 463 | 469 | 463
OC(CCN1CCCCC1)(C2CC\3CC2\C=C3)C4=CC=CC=C4 (configuration not stated) | 465 | 475 | 453 | 442 | 440 | 439 | 463 | 470 | 455
CCCC1=N[N](C)C2=C1\N=C(/NC2=O)C3=CC(=CC=C3OCC)[S+]([O-])(=O)N4CCN(C)CC4 | 400 | 385 | 403 | 349 | 356 | 364 | 407 | 385 | 381
Cc1cc(SCc2sc(-c3ccc(C(F)(F)F)cc3)nc2C)ccc1OCC(=O)O | 447 | 443 | 463 | 453 | 459 | 457 | 471 | 459 | 458
COc1ccc(CC2c3cc(OC)c(OC)cc3CC[N+]2(C)CCC(=O)OCCCCCOC(=O)CC[N+]2(C)CCc3cc(OC)c(OC)cc3C2Cc2ccc(OC)c(OC)c2)cc1OC (configuration not stated) | 406 | 390 | 375 | 412 | 394 | 401 | 439 | 437 | 427
CN(C)CC[C@H](CSc1ccccc1)Nc1ccc([S+](=O)([O-])NC(=O)c2ccc(N3CCN(Cc4ccccc4-c4ccc(Cl)cc4)CC3)cc2)cc1[N+](=O)[O-] | 363 | 388 | 324 | 195 | 218 | 191 | 321 | 354 | 338
C=C[C@H]1CN2CCC1C[C@@H]2[C@@H](O)c1ccnc2ccccc12 (some centres not stated) | 453 | 422 | 420 | 448 | 435 | 451 | 443 | 436 | 429
CN(CCOc1ccc(NS(C)(=O)=O)cc1)CCc1ccc(NS(C)(=O)=O)cc1 | 451 | 455 | 463 | 444 | 463 | 447 | 469 | 465 | 464
CO[C@@H]1[C@@H](OC(N)=O)[C@@H](O)[C@H](OC2=CC=C3\C(=C(NC(=O)C4=CC=C([O-])C(=C4)CC=C(C)C)/C(=O)OC3=C2C)O)OC1(C)C | 437 | 451 | 437 | 476 | 445 | 461 | 449 | 465 | 464
OCCNC1CCCc2c1[nH]c1ccc(-c3ccccc3)cc21 (configuration not stated) | 448 | 454 | 453 | 409 | 413 | 416 | 444 | 441 | 446
CCC(=O)OC1CCC2C3CCC/4=C/C(=O)CC[C@@]4(C)C3CC[C@]12C (some centres not stated) | 457 | 456 | 458 | 450 | 460 | 448 | 471 | 473 | 466
O=C(C[C@@H]1C/C=C\CCC(=O)O[C@H](c2ccccc2)CNC1=O)NCc1ccc(Cl)cc1 | 473 | 471 | 465 | 437 | 415 | 436 | 452 | 447 | 457
COc1cc(NC(=O)c2ccc(-c3ccc(Cl)cc3)o2)cc(OC)c1 | 412 | 432 | 418 | 457 | 465 | 463 | 471 | 472 | 472
